Measured values as given in the supplement of paper PMC11061612.

What was measured:
[1] = test system: NB12 (Neuroblastoma); assay: Bliss excess, mean over the matrix (fraction); higher = more synergy
Procedure, shortened: (§1)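 Cell lines grown in DMEM/F12 or RPMI with 10% FBS were plated in 1536-well plates and held 24 hours at 37°C, 5% CO2 before 72 hours of exposure to two-drug dose matrices, with DMSO typically at 0.2%. CellTiter-Glo 2.0 luminescence gave viability, which was converted to inhibition. Vehicle wells were set to 0 and blank wells to 1. Combination Emax is the second-highest inhibition in the matrix, and Bliss excess is the observed combination effect minus the expected EA + EB − EA·EB, where EA and EB are the single-agent effects.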

[2] = test system: SK-MEL-2 (Melanoma); assay: as above
Procedure, shortened: as §1

[3] = test system: CAL-120 (Breast Carcinoma); assay: combination Emax (second highest fraction inhibited in the dose matrix, 72 h); higher = more inhibition; extreme values may be limits of the assay
Procedure, shortened: as §1

[4] = test system: GB-1 (Glioblastoma); assay: as above
Procedure, shortened: as §1

[5] = test system: KE-37 (T-Lymphoblastic Leukemia); assay: as above
Procedure, shortened: as §1

[6] = test system: NB12 (Neuroblastoma); assay: as above
Procedure, shortened: as §1

[7] = test system: NCI-H23 (Lung Adenocarcinoma); assay: as above
Procedure, shortened: as §1

[8] = test system: SK-MEL-2 (Melanoma); assay: as above
Procedure, shortened: as §1

[9] = test system: TE-8 (Esophageal Squamous Cell Carcinoma); assay: as above
Procedure, shortened: as §1

[10] = test system: WM278 (Melanoma); assay: as above
Procedure, shortened: as §1
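For Bliss excess, mean over the matrix in this document: after 72 h of two-drug dosing.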

Row | Compound | Bliss excess [1] | Bliss excess [2] | combination Emax [3] | combination Emax [4] | combination Emax [5] | combination Emax [6] | combination Emax [7] | combination Emax [8] | combination Emax [9] | combination Emax [10]
1 | NC1(C(=O)N[C@@H](CCO)c2ccc(Cl)cc2)CCN(c2ncnc3[nH]ccc23)CC1 [Capivasertib] + Cn1cnc2c(F)c(Nc3ccc(Br)cc3Cl)c(C(=O)NOCCO)cc21 [Selumetinib] (first compound max 10 µM, 7x7, partner max 10 µM) | 0.0154 | 0.0662 | 0.444 | 0.588 | 0.707 | 0.504 | 0.454 | 0.843 | 0.624 | 0.722
2 | Cc1nc(Nc2ncc(C(=O)Nc3c(C)cccc3Cl)s2)cc(N2CCN(CCO)CC2)n1 [Dasatinib] + CC(=O)Nc1cccc(-n2c(=O)n(C3CC3)c(=O)c3c(Nc4ccc(I)cc4F)n(C)c(=O)c(C)c32)c1 [Trametinib] (first compound max 2 µM, 7x7, partner max 1 µM) | 0.0319 | -0.0571 | 0.525 | 0.701 | 0.32 | 0.266 | 0.765 | 0.94 | 0.865 | 0.808
3 | COc1cc2ncnc(Nc3ccc(F)c(Cl)c3)c2cc1OCCCN1CCOCC1 [Gefitinib] + CC(C)n1c(=O)n(C)c2cnc3cc(F)c(-c4ccc(OCCCN5CCCCC5)nc4)cc3c21 [AZD1390] (first compound max 10 µM, 7x7, partner max 0.3 µM) | -0.0668 | -0.0348 | 0.14 | 0.0404 | 0.357 | 0.139 | 0.107 | 0.169 | 0.225 | 0.0959
4 | CS(=O)(=O)CCNCc1ccc(-c2ccc3ncnc(Nc4ccc(OCc5cccc(F)c5)c(Cl)c4)c3c2)o1 [Lapatinib] + C[C@@H](Oc1cc(-c2cnn(C3CCNCC3)c2)cnc1N)c1c(Cl)ccc(F)c1Cl [Crizotinib] (first compound max 10 µM, 7x7, partner max 10 µM) | -0.0622 | -0.0232 | 0.734 | 0.843 | 0.975 | 0.843 | 0.645 | 0.62 | 0.71 | 0.768
5 | CC(=O)c1c(C)c2cnc(Nc3ccc(N4CCNCC4)cn3)nc2n(C2CCCC2)c1=O [Palbociclib] + CC1(C)CCC(CN2CCN(c3ccc(C(=O)NS(=O)(=O)c4ccc(NCC5CCOCC5)c([N+](=O)[O-])c4)c(Oc4cnc5[nH]ccc5c4)c3)CC2)=C(c2ccc(Cl)cc2)C1 [Venetoclax] (first compound max 10 µM, 7x7, partner max 1 µM) | 0.0237 | -0.0492 | 0.134 | 0.15 | 0.776 | 0.614 | 0.168 | 0.11 | 0.286 | 0.185
6 | CC(=O)c1c(C)c2cnc(Nc3ccc(N4CCNCC4)cn3)nc2n(C2CCCC2)c1=O [Palbociclib] + Cc1c2c(nn1C)CSCc1cc(n(C)n1)CSc1cc(c3ccccc3c1)OCCCc1c(C(=O)O)n(C)c3c-2c(Cl)ccc13 [AZD5991] (first compound max 10 µM, 7x7, partner max 1 µM) | 0.0159 | -0.045 | 0.134 | 0.238 | 0.687 | 0.357 | 0.934 | 0.905 | 0.427 | 0.156
7 | CC(=O)c1c(C)c2cnc(Nc3ccc(N4CCNCC4)cn3)nc2n(C2CCCC2)c1=O [Palbociclib] + Cn1cnc2c(F)c(Nc3ccc(Br)cc3Cl)c(C(=O)NOCCO)cc21 [Selumetinib] (first compound max 10 µM, 7x7, partner max 10 µM) | 0.0177 | 0.0374 | 0.186 | 0.275 | 0.71 | 0.276 | 0.387 | 0.805 | 0.383 | 0.574
8 | C[C@@H](c1ccc2nccn2c1)n1nnc2ncc(-c3cnn(C)c3)nc21 [Savolitinib] + CC1(C)CCC(CN2CCN(c3ccc(C(=O)NS(=O)(=O)c4ccc(NCC5CCOCC5)c([N+](=O)[O-])c4)c(Oc4cnc5[nH]ccc5c4)c3)CC2)=C(c2ccc(Cl)cc2)C1 [Venetoclax] (first compound max 1 µM, 7x7, partner max 1 µM) | -0.0062 | -0.0295 | 0.0877 | 0.109 | 0.113 | 0.641 | 0.205 | 0.14 | 0.229 | 0.102
9 | C[C@@H](c1ccc2nccn2c1)n1nnc2ncc(-c3cnn(C)c3)nc21 [Savolitinib] + Cc1c2c(nn1C)CSCc1cc(n(C)n1)CSc1cc(c3ccccc3c1)OCCCc1c(C(=O)O)n(C)c3c-2c(Cl)ccc13 [AZD5991] (first compound max 1 µM, 7x7, partner max 1 µM) | -0.0075 | -0.023 | 0.112 | 0.117 | 0.159 | 0.219 | 0.915 | 0.901 | 0.323 | 0.15
10 | Cn1cnc2c(F)c(Nc3ccc(Br)cc3Cl)c(C(=O)NOCCO)cc21 [Selumetinib] + C=CCn1c(=O)c2cnc(Nc3ccc(N4CCN(C)CC4)cc3)nc2n1-c1cccc(C(C)(C)O)n1 [AZD1775] (first compound max 10 µM, partner max 1 µM) | -0.0517 | 0.0533 | 0.326 | 0.321 | 0.947 | 0.674 | 0.915 | 0.831 | 0.57 | 0.641
11 | Cn1cnc2c(F)c(Nc3ccc(Br)cc3Cl)c(C(=O)NOCCO)cc21 [Selumetinib] + CC(C)n1c(=O)n(C)c2cnc3cc(F)c(-c4ccc(OCCCN5CCCCC5)nc4)cc3c21 [AZD1390] (first compound max 10 µM, 7x7, partner max 0.3 µM) | -0.0215 | -0.0602 | 0.112 | 0.0241 | 0.303 | 0.106 | 0.339 | 0.739 | 0.546 | 0.841
12 | Cn1cnc2c(F)c(Nc3ccc(Br)cc3Cl)c(C(=O)NOCCO)cc21 [Selumetinib] + CCN(CCO)CCCOc1ccc2c(Nc3cc(CC(=O)Nc4cccc(F)c4)[nH]n3)ncnc2c1 [AZD2811] (first compound max 10 µM, 7x7, partner max 1 µM) | -0.0881 | -0.0538 | 0.188 | 0.117 | 1 | 0.607 | 0.484 | 0.722 | 0.347 | 0.581
13 | Cn1cnc2c(F)c(Nc3ccc(Br)cc3Cl)c(C(=O)NOCCO)cc21 [Selumetinib] + C[C@@H]1COCCN1C2=NC(=NC(=C2)C3(CC3)[S@](=N)(=O)C)C4=C5C=CNC5=NC=C4 [AZD6738] (first compound max 10 µM, 7x7, partner max 10 µM) | -0.0545 | -0.0161 | 0.436 | 0.337 | 0.959 | 0.39 | 0.874 | 0.806 | 0.495 | 0.587
